Laboratory results published in patent US20200129582A1, “NOVEL PEPTIDES AND PEPTIDOMIMETICS” (UNIVERSITY OF AUCKLAND, priority 2016, published 2020).
Where “and” joins values, the source holds several entries; their conditions need not be identical. Identical values can stand only once. Like-named read-outs stand apart in the source and are kept apart here.

Assays:
[1] = molecular target: T1, Connexin43 protein (hemichannels of hCMVEC cells) (Homo sapiens, UniProt P17302); type: cell-based; conditions: agent alone, 100 μM, FIG. 6, injury control 100±3.5%
T1 construct: In the ischemia injury model, hCMVEC cells were incubated for 2 hours; endogenous in cells; host or cells: hCMVEC (human cerebral microvascular endothelial cells)

[2] = molecular target: T2, hemichannel-mediated ATP release from hCMVEC cells (Homo sapiens, UniProt P17302); experiment: In vitro ischemia injury ATP release assay (single alanine substituted and truncated peptides); type: cell-based
T2 construct: endogenous in cells; host or cells: hCMVEC (human cerebral microvascular endothelial cells)
Method: The human cerebral endothelial cells (hCMVEC) were plated at a density of 0.025×10^6 cells per well in a collagen-coated 12-well plate (1 μg/cm^2) a day prior to the experiment. Cells were incubated in culture medium overnight. Hypoxic, acidic, ion-shifted Ringer injury solution that mimics ionic concentrations and acid-base shifts of the interstitial space in hypoxic-ischemic brains (Bondarenko and Chesler, 2001, […]) was used to trigger hemichannel opening. The injury solution contained (in mM): 38 NaCl, 13 NaHCO3, 3 Na-gluconate, 65 K-gluconate, 38 NMDG-Cl, 1 NaH2PO4, and 1.5 MgCl2. The injury solution was bubbled in 95% N2, 5% CO2 gas (20 L/min) for 5 minutes and pH adjusted to 6.6 before use. The standard ringer solution contained (in mM): 124 NaCl, 3 KCl, 26 NaHCO3, 26 NaHCO3, 1 NaH2PO4, 1.3 CaCl2, 1.5 MgCl2, and 10 Glucose, and pH adjusted to 7.4 before use (Bondarenko and Chesler, 2001). In the ischemia injury model, hCMVEC cells were incubated for 2 hours in 500 μL injury solution+/−Peptide5 (100 μM) (O'Carroll et al., 2008, Cell communication & adhesion 15:27-42; Danesh-Meyer et al., 2012, Brain: a journal of neurology 135:506-520; Davidson et al., 2012, Annals of neurology 71:121-132; Davidson et al., 2013, Experimental neurology 248:301-308; Davidson et al., 2014, PloS one 9:e96558; Davidson et al., 2015, J Cereb Blood Flow Metab), or +/−extracellular loop sequences (Table 5), or modified peptides (Table 2, 3) dissolved in injury solution (500 μL) with a final concentration of 100 μM. For negative control, hCMVEC cells were incubated only in 500 μL standard ringer solution for 2 hours. For positive control, hCMVEC cells were incubated only in 500 μL […] for 2 hours. All incubations were conducted at 37° C. in 95% O2 and 5% CO2. At the end of each experiment, samples were removed and immediately placed on ice. The concentration of ATP in the samples was determined using a Luciferin/luciferase bioluminescence reaction (ATP Determination Kit, Molecular Probes) and detected using a luminescence plate reader (VICTOR X, Perkin Elmer #2030-0010). Standard curves were generated in each experiment from an ATP standard (0 to 500 nM) to convert bioluminescence units to ATP concentration. […] The data is presented as mean±standard error relative to the injury or injury-reperfusion positive control. Statistically significant differences between samples were tested using one-way analysis of variance and Tukey's multiple comparisons test.
Peptides listed in table 5 and 2 were assessed using the ischemia injury model in hCMVEC cells as described above, and the medium was collected for ATP release measurement.
The human cerebral endothelial cells (hCMVEC) were plated at a density of 0.025×10^6 cells per well in a collagen-coated 12-well plate (1 μg/cm^2) a day prior to the experiment. Cells were incubated in culture medium overnight. Hypoxic, acidic, ion-shifted Ringer injury solution that mimics ionic concentrations and acid-base shifts of the interstitial space in hypoxic-ischemic brains (Bondarenko and Chesler, 2001) was used to trigger hemichannel opening. The injury solution contained (in mM): 38 NaCl, 13 NaHCO3, 3 Na-gluconate, 65 K-gluconate, 38 NMDG-Cl, 1 NaH2PO4, and 1.5 MgCl2. The injury solution was bubbled in 95% N2, 5% CO2 gas (20 L/min) for 5 minutes and pH adjusted to 6.6 before use. The standard ringer solution contained (in mM): 124 NaCl, 3 KCl, 26 NaHCO3, 26 NaHCO3, 1 NaH2PO4, 1.3 CaCl2, 1.5 MgCl2, and 10 Glucose, and pH adjusted to 7.4 before use (Bondarenko and Chesler, 2001).

[3] = tested on: hemichannels and gap junction channels; conditions: O'Carroll et al., 2008; cited from earlier work
[4] = molecular target: T1, Connexin43 protein (hemichannels of hCMVEC cells); type: cell-based
Method: (§1) Peptide5 interacting site on the Connexin43 protein was determined using a competition assay. Extracellular loop sequences (Auspep, Australia) were dissolved in miliQ H2O were at a stock concentration of 1 mM […]. Extracellular loop sequences were mixed with the native Peptide5 at 1:1 ratio (100 μM), which was left for 1 hour at room temperature prior to the experiment to allow competitive binding to occur. Following 1-hour incubation, extracellular loop sequence and peptide5 mixture was dissolved in injury solution and exposed to hCMVEC cells for 2 hours using the ischaemia-reperfusion model described above. Extracellular medium was then collected for ATP measurement.
as §1, with “interaction sites” for “interacting site”

T2 sequence (P17302 2-382 limits assumed): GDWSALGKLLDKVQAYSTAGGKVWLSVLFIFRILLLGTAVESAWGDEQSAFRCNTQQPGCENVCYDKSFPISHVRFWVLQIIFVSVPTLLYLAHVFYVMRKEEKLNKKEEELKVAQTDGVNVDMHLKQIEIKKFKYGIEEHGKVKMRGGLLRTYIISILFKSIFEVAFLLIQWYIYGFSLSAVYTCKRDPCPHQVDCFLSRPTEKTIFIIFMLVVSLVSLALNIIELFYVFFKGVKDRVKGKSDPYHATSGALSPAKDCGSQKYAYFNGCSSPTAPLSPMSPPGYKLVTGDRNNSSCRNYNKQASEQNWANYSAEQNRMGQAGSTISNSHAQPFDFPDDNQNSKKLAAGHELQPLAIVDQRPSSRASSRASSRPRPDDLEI
T1 sequence (P17302 2-382): as the sequence (P17302 2-382 limits assumed) above

Molecule | ATP release, % of the injury control [1] [%] | ATP release compared to injury control (in words) ([2]; hCMVEC, 100 μM, FIG. 3) | ATP release, % of the injury control ([2]; hCMVEC, ischemic injury solution 2 hours, 100 μM, FIG. 3, injury control 100±3.6%) [%] | high concentration that inhibits both hemichannel and gap junction channel function [3] [µM] | low concentrations that specifically inhibit hemichannels [3] [µM] | ATP release, % of the injury control [4] [%] | ATP release compared to injury control (in words) [2] | ATP release, % of the injury control [2]
CC1(C)[C@@H](OC(=O)CCC(=O)O)CC[C@]2(C)[C@H]3C(=O)C=C4[C@@H]5C[C@@](C)(C(=O)O)CC[C@]5(C)CC[C@@]4(C)[C@]3(C)CC[C@@H]12 [CBX, Carbenoxolone] | 13.4±4.8 | significantly reduced ATP release | 9.1±10.1 |  |  |  |  | 
VDCFLSRPTEKT [Peptide5] |  |  |  | 500 | 5 to 50 | 54.1±4.4 | significantly reduced ATP release | 44.6±7.7% and 47.3±5.1%
